Assay results as given in paper PMC3731256, “Optimization of Substituted 6-Salicyl-4-Anilinoquinazoline Derivatives as Dual EGFR/HER2 Tyrosine Kinase Inhibitors” (PLoS ONE, 2013).

How the values were obtained:
cSRC = target: T1, cSRC (Homo sapiens, UniProt P12931); assay: Tyrosine kinase profiling (Alphascreen), cSRC; assay type: biochemical; conditions: ATP concentration = Km
T1 construct: purchased Millipore Corp
Method: (§1) The cytoplasmic domain of vascular endothelial growth factor receptor 2 (VEGFR2), platelet-derived growth factor receptor α (PDGFRα), cSRC were purchased from Millipore Corp. Assays for 3 tyrosine kinases were performed in 384 well plates using the Alphascreen® system (PerkinElmer) at room temperature. Enzyme reactions were performed in 50 mM Tris–HCl, pH7.5, 5 mM MnCl2, 5 mM MgCl2, 0.01% Tween-20, 2 mM dithiothreitol and 0.1 μg/ml biotinylated poly-GluTyr (4:1) containing optimized concentration of enzyme and ATP as described below.
(§2) Prior to the kinase reaction, compound and enzyme were incubated for 5 min at room temperature. The reactions were initiated by adding ATP. After the reaction period as described below at room temperature, the reactions were stopped by the addition of 25 μl of 100 mM EDTA, 10 μg/ml Alphascreen streptavidin donor beads and 10 μg/ml acceptor beads described below in 62.5 mM HEPES, pH 7.4, 250 mM NaCl, and 0.1% BSA. Plates were incubated in the dark for more than 12 h and then read by EnVision 2102 Multilabel Reader (PerkinElmer). The well containing substrate and enzyme without compound was used as total reaction control. […]

p38α = target: T2, p38α (Homo sapiens, UniProt Q16539); assay: Serine/threonine kinase profiling ([γ-32P] ATP), p38α; assay type: biochemical
T2 construct: FLAG (N); made in house; host or cells: baculovirus expression system
Method: (§3) Assays for 4 serine/threonine kinases using radio labeled [γ-^32P] ATP (GE Healthcare, Piscataway, NJ) were performed in 96 well plates. Mitogen-activated protein kinase p38α (p38α), was expressed as N-terminal FLAG-tagged protein using a baculovirus expression system. Aurora-A and -B were expressed as N-terminal 6xHis tagged protein using a baculovirus expression system. CDK2/CycA was expressed as C-terminal 6His-tagged CDK2, and N-terminal GST-tagged Cyclin A protein using a baculovirus expression system.
(§4) The reaction conditions were optimized for each kinase: p38α (100 ng/well of enzyme, 1 μg/well of MBP (Wako Pure Chemical Ind., Osaka, Japan), 0.1 μCi/well of [γ-^32P] ATP, 60 min reaction at 30 ℃); Aurora-A and -B (50 ng/well of enzyme, 30 μM of Aurora substrate peptide, 0.2 μCi/well of [γ-^32P] ATP, 60 min reaction at room temperature); CDK2/CycA (1.8 mUnits/well of enzyme, 1 μg/well of Histone H1 (Calbiochem), 0.2 μCi/well of [γ-^32P] ATP, 20 min reaction at room temperature).
(§5) All the four enzyme reactions were performed in 25 mM HEPES, pH 7.5, 10 mM magnesium acetate, 1 mM dithiothreitol and 0.5 μM ATP containing optimized concentration of enzyme, substrate and radiolabeled ATP as described above in a total volume of 50 μl. […] The radioactivity was counted by a TopCount scintillation counter (PerkinElmer).

MDA-MB-453 cells = assay: Antiproliferation WST-1 assay, MDA-MB-453; assay type: cell-based; conditions: Homo sapiens, breast cancer, HER-2++, PTEN deficiency
Method: (§6) WST-1 is better than MTT for analyzing cell proliferation, because it can be reduced to soluble formazan by dehydrogenase in mitochondria and has little toxicity to cells. Cell proliferation was determined using WST-1 dye (Beyotime Inst Biotech, China) according to manufacture’s instructions. Brieﬂy, 5 × 10^3 cells per well were seeded in a 96-well plate, grown at 37 ℃ for 24 h, and then placed in serum-starved conditions for a further 6 h. Subsequently, cells were treated with compounds (Table 1) at increasing concentrations in the presence of 10% FBS for 24 or 48h. After 10 µL WST-1 dye was added to each well, cells were incubated at 37 ℃ for 2 h and the absorbance was ﬁnally determined at 450 nm using a microplate reader.

A431 cells = assay: Antiproliferation WST-1 assay, A431; assay type: cell-based, human; conditions: Homo sapiens, A-431, WST-1 assay; A431, overexpression of EGFR; read-out: Cellular IC50, A431
Method: as §6

CDK2/CycA = target: T3, CDK2/CycA (Homo sapiens, UniProt P24941); assay: Serine/threonine kinase profiling ([γ-32P] ATP), CDK2; assay type: biochemical
T3 construct: 6His (C); made in house; host or cells: baculovirus expression system
Method: as §3, §4, §5

A549 cells = assay: Antiproliferation WST-1 assay, A549; assay type: cell-based, human; conditions: WST-1 assay; A549 carcinomic human alveolar basal epithelial cell; read-out: Cellular IC50, A549
Method: as §6

H1781 cells = assay: Antiproliferation WST-1 assay, H1781; assay type: cell-based; conditions: NCI-H1781, NSCLC, HER-2 G776ins V_G/C, lapatinib-resistant
Method: as §6

H1975 cells = assay: Antiproliferation WST-1 assay, H1975; assay type: cell-based; conditions: Homo sapiens, NCI-H1975, NSCLC, EGFR L858R/T790M
Method: as §6

VEGFR2 = target: T4, VEGFR2 (Homo sapiens, UniProt P35968); assay: Tyrosine kinase profiling (Alphascreen), VEGFR2; assay type: biochemical; conditions: ATP concentration = Km
T4 construct: The cytoplasmic domain of vascular endothelial growth factor receptor 2 (VEGFR2); purchased Millipore Corp
Method: as §1, §2

[1] = system: several key kinases close to EGFR/HER2; assay: Kinase selectivity profile; assay type: biochemical; conditions: versus EGFR/HER2
Method: as §3, §1

[2] = converted from IC50 by online calculator

T2 sequence (Q16539 whole entry): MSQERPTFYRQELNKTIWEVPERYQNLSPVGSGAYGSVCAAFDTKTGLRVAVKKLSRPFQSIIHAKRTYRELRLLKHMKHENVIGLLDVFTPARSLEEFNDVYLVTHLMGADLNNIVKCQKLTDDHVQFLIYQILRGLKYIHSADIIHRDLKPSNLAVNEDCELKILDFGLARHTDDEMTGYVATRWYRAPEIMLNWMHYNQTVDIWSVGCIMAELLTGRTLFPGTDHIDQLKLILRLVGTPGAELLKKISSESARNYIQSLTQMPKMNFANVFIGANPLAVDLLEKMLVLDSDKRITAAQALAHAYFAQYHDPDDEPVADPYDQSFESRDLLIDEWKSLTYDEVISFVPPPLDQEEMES
T1 sequence (P12931 whole entry, species assumed): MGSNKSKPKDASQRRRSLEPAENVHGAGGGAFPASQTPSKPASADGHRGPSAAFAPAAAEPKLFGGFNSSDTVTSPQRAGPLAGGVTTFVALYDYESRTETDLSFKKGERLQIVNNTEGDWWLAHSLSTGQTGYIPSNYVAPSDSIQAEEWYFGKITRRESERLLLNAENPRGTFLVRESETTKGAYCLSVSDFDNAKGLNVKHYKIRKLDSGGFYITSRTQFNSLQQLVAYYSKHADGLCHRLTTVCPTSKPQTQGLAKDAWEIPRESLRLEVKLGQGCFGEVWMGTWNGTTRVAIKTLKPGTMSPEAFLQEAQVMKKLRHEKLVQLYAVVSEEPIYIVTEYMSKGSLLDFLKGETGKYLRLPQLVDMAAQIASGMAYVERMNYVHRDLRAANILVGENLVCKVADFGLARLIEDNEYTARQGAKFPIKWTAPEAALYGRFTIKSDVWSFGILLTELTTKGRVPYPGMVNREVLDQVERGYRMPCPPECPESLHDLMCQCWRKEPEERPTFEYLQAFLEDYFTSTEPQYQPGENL
T4 sequence (P35968 786-1356 limits assumed, species assumed): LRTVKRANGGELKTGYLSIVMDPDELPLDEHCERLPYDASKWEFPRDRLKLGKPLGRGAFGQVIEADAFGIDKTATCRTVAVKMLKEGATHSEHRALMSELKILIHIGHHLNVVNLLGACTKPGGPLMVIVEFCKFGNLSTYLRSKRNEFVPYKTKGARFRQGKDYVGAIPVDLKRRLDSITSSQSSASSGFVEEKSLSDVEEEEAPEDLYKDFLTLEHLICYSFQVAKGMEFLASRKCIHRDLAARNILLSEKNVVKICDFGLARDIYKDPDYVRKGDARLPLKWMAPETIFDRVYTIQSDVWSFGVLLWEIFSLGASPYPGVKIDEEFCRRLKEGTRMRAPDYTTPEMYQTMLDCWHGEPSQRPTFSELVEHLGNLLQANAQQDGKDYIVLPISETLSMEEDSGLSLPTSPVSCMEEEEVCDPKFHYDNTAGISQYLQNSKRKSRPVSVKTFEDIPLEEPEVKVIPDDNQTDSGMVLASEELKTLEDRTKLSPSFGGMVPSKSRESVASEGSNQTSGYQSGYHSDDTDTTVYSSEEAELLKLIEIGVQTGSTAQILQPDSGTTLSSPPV

O=C(Nc1ccc2ncnc(Nc3cccc(Br)c3)c2c1)c1ccc(C(F)(F)F)cc1O [Compound 21, N-(4-(3-bromophenylamino)quinazolin-6-yl)-2-hydroxy-4-(trifluoromethyl)benzamide]
IC50 (cSRC): 11.9 ± 0.78 µM
melting point: 289 to 291 °C
IC50 (p38α; ATP concentration = Km): 16.1 ± 0.37 µM
pIC50 p38α (p38α; [2]): 4.79
IC50 (MDA-MB-453 cells): 0.92 ± 0.019 µM
IC50 (A431 cells): 0.67 ± 0.002 µM
IC50 (CDK2/CycA; ATP concentration = Km): 3.5 µM
pIC50 CDK2 (CDK2/CycA; [2]): 5.46
IC50 (A549 cells): 1.64 ± 0.027 µM
IC50 (H1781 cells): 0.77 ± 0.034 µM
IC50 (H1975 cells): 3.3 ± 0.233 µM
IC50 (VEGFR2): 29.2 ± 0.98 µM
selectivity against major of other kinases screened [1]: more than 100 fold
